Tests used:
B16-MUC1 tumor cells = assay: Tumor growth, B16-MUC1 model; type: in vivo, C57B1/6 mice; details: 50 μg Liposomal PET Lipid A, value stated jointly with saline group
Procedure: (§1) C57B1/6 mice were treated using a bi-weekly schedule with saline vehicle, 50 μg Liposomal PET Lipid A or 5 μg of liposomal vaccine formulation of Example 1 starting on day −42. On Day 0, mice were challenged with either 2×10^6 B16-MUC1, 0.5×10^6 B16, or 2×10^6MC38-MUC1 tumor cells followed by two additional vaccinations on days +3 and +17. Tumor growth was recorded twice weekly.
In the B16-MUC1 model, animals treated with the Example 1 vaccine formulation had no tumors at Day 44. 9/12 animals were tumor free in the Example 1 vaccine formulation group at end of study. […] Mean tumor volume in these two groups was about 200 mm^3 by Day 10. By Day 24, mean tumor volume was about 1200 mm^3 for the saline and PET lipid A groups.

MC38-MUC1 tumor cells = assay: Tumor growth, MC38-MUC1 model; type: in vivo, C57B1/6 mice; details: vaccine 5 μg, Liposomal PET Lipid A 50 μg
Procedure: as §1
In the MC38-MUC1 model, 3/12 animals were tumor free in the Example 1 vaccine formulation group at the end of the study. […] By Day 32, mean tumor volume was about 120 mm^3 for the Example 1 vaccine formulation group as compared to about 1200 mm^3 for the PET lipid A group and about 1700 mm^3 for the saline group.

[1] = system: MUC1 antigen having SEQ ID NO: 2; assay: Humoral response: serum IgG ELISA on plates coated with MUC1 antigen; type: in vivo, C57B1/6J mice; details: vaccine 5, 25 and 100 μg/mouse; PET lipid A 50 μg; serially diluted sera
Procedure: C57B1/6J mice were injected with a liposomal vaccine formulation of Example 1 in three different concentrations of vaccine (5, 25 and 100 μg). 50 μg dose of PET lipid A and saline were used as a negative control. Sera from the mice were isolated and subsequently serially diluted and incubated onto plates coated with MUC1 antigen having SEQ ID NO: 2. After incubation with sera, the plates were washed and a labeled anti-mouse IgG specific antibody was added. The antibody was washed off and the mouse IgG was measured via an ELISA reader.

Substance: pentaerythritol-6-chain-C14-glucosamine-mono-phosphate [PET lipid A]
- mean tumor volume by Day 10 (B16-MUC1 tumor cells): about 200 mm^3
- mean tumor volume by Day 24 (B16-MUC1 tumor cells): about 1200 mm^3
- mean tumor volume by Day 32 (MC38-MUC1 tumor cells): about 1200 mm^3
- antibody (IgG) response by ELISA [1]: no antibody response

Reference: US8329639B2, “MUC1 based glycolipopeptide vaccine with adjuvant” (priority 2011, dated 2012)
